System: Unknown protein yeast genes
Assay: DNA chip mRNA expression in yeast, unknown protein yeast genes (Table 1)
Assay type: cell-based, Saccharomyces cerevisiae S288C
Method in brief: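 In this screen, yeast in logarithmic growth are challenged for two hours with a toxic substance at a non-lethal inhibitory concentration. Their mRNA, converted to Cy3- or Cy5-labeled cDNA, hybridizes at 65° C. to a chip spanning every yeast gene, and expression is expressed as a ratio to untreated cells.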

For Na2As [(1)], the “The level of expressed mRNA in the presence of chemical substance/The level of expressed mRNA in the absence of chemical substance” value (yeast gene YKL195W, incubated two hours with chemical substance) was 0.8, the “The level of expressed mRNA in the presence of chemical substance/The level of expressed mRNA in the absence of chemical substance” value (yeast gene YKR091W, incubated two hours with chemical substance) was 1.5 and the “The level of expressed mRNA in the presence of chemical substance/The level of expressed mRNA in the absence of chemical substance” value (yeast gene YLR054C, incubated two hours with chemical substance) was 2.0. The “The level of expressed mRNA in the presence of chemical substance/The level of expressed mRNA in the absence of chemical substance” value (yeast gene YLR149C, incubated two hours with chemical substance) was 1.4, the “The level of expressed mRNA in the presence of chemical substance/The level of expressed mRNA in the absence of chemical substance” value (yeast gene YLR152C, incubated two hours with chemical substance) was 0.7 and the “The level of expressed mRNA in the presence of chemical substance/The level of expressed mRNA in the absence of chemical substance” value (yeast gene YLR194C, incubated two hours with chemical substance) was 2.1. The “The level of expressed mRNA in the presence of chemical substance/The level of expressed mRNA in the absence of chemical substance” value (yeast gene YLR324W, incubated two hours with chemical substance) was 0.7, the “The level of expressed mRNA in the presence of chemical substance/The level of expressed mRNA in the absence of chemical substance” value (yeast gene YLR350W, incubated two hours with chemical substance) was 1.2 and the “The level of expressed mRNA in the presence of chemical substance/The level of expressed mRNA in the absence of chemical substance” value (yeast gene YLR387C, incubated two hours with chemical substance) was 0.9. For the same substance, the “The level of expressed mRNA in the presence of chemical substance/The level of expressed mRNA in the absence of chemical substance” value (yeast gene YLR460C) was 2.1, the “The level of expressed mRNA in the presence of chemical substance/The level of expressed mRNA in the absence of chemical substance” value (yeast gene YML117W, incubated two hours with chemical substance) was 0.9 and the “The level of expressed mRNA in the presence of chemical substance/The level of expressed mRNA in the absence of chemical substance” value (yeast gene YMR009W, incubated two hours with chemical substance) was 2.3. The “The level of expressed mRNA in the presence of chemical substance/The level of expressed mRNA in the absence of chemical substance” value (yeast gene YMR067C, incubated two hours with chemical substance) was 0.9, the “The level of expressed mRNA in the presence of chemical substance/The level of expressed mRNA in the absence of chemical substance” value (yeast gene YMR090W) was 6.9 and the “The level of expressed mRNA in the presence of chemical substance/The level of expressed mRNA in the absence of chemical substance” value (yeast gene YMR095C, incubated two hours with chemical substance) was 1.1. The “The level of expressed mRNA in the presence of chemical substance/The level of expressed mRNA in the absence of chemical substance” value (yeast gene YMR097C, incubated two hours with chemical substance) was 1.5, the “The level of expressed mRNA in the presence of chemical substance/The level of expressed mRNA in the absence of chemical substance” value (yeast gene YMR102C, incubated two hours with chemical substance) was 1.0 and the “The level of expressed mRNA in the presence of chemical substance/The level of expressed mRNA in the absence of chemical substance” value (yeast gene YMR107W, incubated two hours with chemical substance) was 5.0. The “The level of expressed mRNA in the presence of chemical substance/The level of expressed mRNA in the absence of chemical substance” value (yeast gene YMR180C, incubated two hours with chemical substance) was 1.2, the “The level of expressed mRNA in the presence of chemical substance/The level of expressed mRNA in the absence of chemical substance” value (yeast gene YMR184W, incubated two hours with chemical substance) was 1.3 and the “The level of expressed mRNA in the presence of chemical substance/The level of expressed mRNA in the absence of chemical substance” value (yeast gene YMR191W, incubated two hours with chemical substance) was 1.3. For the same substance, the “The level of expressed mRNA in the presence of chemical substance/The level of expressed mRNA in the absence of chemical substance” value (yeast gene YMR295C, incubated two hours with chemical substance) was 1.7, the “The level of expressed mRNA in the presence of chemical substance/The level of expressed mRNA in the absence of chemical substance” value (yeast gene YMR316W, incubated two hours with chemical substance) was 3.2 and the “The level of expressed mRNA in the presence of chemical substance/The level of expressed mRNA in the absence of chemical substance” value (yeast gene YNL044W, incubated two hours with chemical substance) was 1.3. For the same substance, the “The level of expressed mRNA in the presence of chemical substance/The level of expressed mRNA in the absence of chemical substance” value (yeast gene YNL074C, incubated two hours with chemical substance) was 0.9, the “The level of expressed mRNA in the presence of chemical substance/The level of expressed mRNA in the absence of chemical substance” value (yeast gene YNL092W, incubated two hours with chemical substance) was 1.3 and the “The level of expressed mRNA in the presence of chemical substance/The level of expressed mRNA in the absence of chemical substance” value (yeast gene YNL115C, incubated two hours with chemical substance) was 0.7. The “The level of expressed mRNA in the presence of chemical substance/The level of expressed mRNA in the absence of chemical substance” value (yeast gene YNL156C, incubated two hours with chemical substance) was 1.1, the “The level of expressed mRNA in the presence of chemical substance/The level of expressed mRNA in the absence of chemical substance” value (yeast gene YNL234W, incubated two hours with chemical substance) was 1.1 and the “The level of expressed mRNA in the presence of chemical substance/The level of expressed mRNA in the absence of chemical substance” value (yeast gene YNL281W, incubated two hours with chemical substance) was 1.0. The “The level of expressed mRNA in the presence of chemical substance/The level of expressed mRNA in the absence of chemical substance” value (yeast gene YNL305C, incubated two hours with chemical substance) was 0.9, the “The level of expressed mRNA in the presence of chemical substance/The level of expressed mRNA in the absence of chemical substance” value (yeast gene YNR068C, incubated two hours with chemical substance) was 1.2 and the “The level of expressed mRNA in the presence of chemical substance/The level of expressed mRNA in the absence of chemical substance” value (yeast gene YOL032W, incubated two hours with chemical substance) was 1.3. The “The level of expressed mRNA in the presence of chemical substance/The level of expressed mRNA in the absence of chemical substance” value (yeast gene YOL036W, incubated two hours with chemical substance) was 0.8, the “The level of expressed mRNA in the presence of chemical substance/The level of expressed mRNA in the absence of chemical substance” value (yeast gene YOL047C, incubated two hours with chemical substance) was 1.4 and the “The level of expressed mRNA in the presence of chemical substance/The level of expressed mRNA in the absence of chemical substance” value (yeast gene YOL071W, incubated two hours with chemical substance) was 1.3. The “The level of expressed mRNA in the presence of chemical substance/The level of expressed mRNA in the absence of chemical substance” value (yeast gene YOL082W, incubated two hours with chemical substance) was 1.0, the “The level of expressed mRNA in the presence of chemical substance/The level of expressed mRNA in the absence of chemical substance” value (yeast gene YOL083W, incubated two hours with chemical substance) was 1.1 and the “The level of expressed mRNA in the presence of chemical substance/The level of expressed mRNA in the absence of chemical substance” value (yeast gene YOL117W, incubated two hours with chemical substance) was 1.0. The “The level of expressed mRNA in the presence of chemical substance/The level of expressed mRNA in the absence of chemical substance” value (yeast gene YOL131W, incubated two hours with chemical substance) was 1.0, the “The level of expressed mRNA in the presence of chemical substance/The level of expressed mRNA in the absence of chemical substance” value (yeast gene YOL150C) was 4.1 and the “The level of expressed mRNA in the presence of chemical substance/The level of expressed mRNA in the absence of chemical substance” value (yeast gene YOL162W, incubated two hours with chemical substance) was 2.0. The “The level of expressed mRNA in the presence of chemical substance/The level of expressed mRNA in the absence of chemical substance” value (yeast gene YOR019W, incubated two hours with chemical substance) was 2.9, the “The level of expressed mRNA in the presence of chemical substance/The level of expressed mRNA in the absence of chemical substance” value (yeast gene YOR197W, incubated two hours with chemical substance) was 0.8 and the “The level of expressed mRNA in the presence of chemical substance/The level of expressed mRNA in the absence of chemical substance” value (yeast gene YPL087W, incubated two hours with chemical substance) was 1.0. The “The level of expressed mRNA in the presence of chemical substance/The level of expressed mRNA in the absence of chemical substance” value (yeast gene YPL196W, incubated two hours with chemical substance) was 1.3, the “The level of expressed mRNA in the presence of chemical substance/The level of expressed mRNA in the absence of chemical substance” value (yeast gene YPL206C, incubated two hours with chemical substance) was 1.0 and the “The level of expressed mRNA in the presence of chemical substance/The level of expressed mRNA in the absence of chemical substance” value (yeast gene YPL222W, incubated two hours with chemical substance) was 0.9. For the same substance, the “The level of expressed mRNA in the presence of chemical substance/The level of expressed mRNA in the absence of chemical substance” value (yeast gene YPR023C, incubated two hours with chemical substance) was 1.2 and the “The level of expressed mRNA in the presence of chemical substance/The level of expressed mRNA in the absence of chemical substance” value (yeast gene YPR151C, incubated two hours with chemical substance) was 2.3.

From US8192962B2, “Processes for detecting toxic substances” (Daikin Industries, Ltd., priority 2001, dated 2012)
